Key:
Assay type in all cases: cell-based
HIV WT integrase = assay: PhenoScreen (Phenosense) assay, single-round luciferase pseudotyped HIV; details: Human immunodeficiency virus 1, read-out: Activity, Phenosense assay, WT
From the text: (§1) Monogram Bioscience' PhenoScreen assay allows the evaluation of integrase inhibitors for activity against a variety of HIV variants. The assay uses virus generated from 2 DNA constructs; one containing the HIV LTR, gag and pol regions, as well as a luciferase reporter gene in place of the viral envelope genes, and a second DNA construct containing the amphotrophic murine leukemia virus (A-MLV) envelope gene required to pseudotype virions and render them capable of entry into a target cell. Viruses generated using these constructs by transfection into a producer cell line such as 293T are capable of one-round of infection only. Successful integration events are directly proportional to the levels of luciferase expression 48 h after infection.
(§2) The viral variants chosen by the present inventors to screen integration inhibitors consist of mutations within the viral integrase enzyme known to confer resistance to a number of known integration inhibitors published in the literature. In particular, the viral variants containing the Q148H/G140S double mutation in integrase, and the N155H/E92Q double mutation in integrase, represent two of the more common viruses identified to arise in patients that are failing treatment with Isentress (Raltegravir, MK-0518).

[1] = system: HIV variant E92Q/N155H integrase; assay: as above; details: Human immunodeficiency virus 1, read-out: Activity, Phenosense assay, E92Q/N155H
From the text: as §1, §2

[2] = system: HIV variant G140S/Q148H integrase; assay: as above; details: Human immunodeficiency virus 1, read-out: Activity, Phenosense assay, G140S Q148H
From the text: as §1, §2

[3] = system: HIV variant T125K/F121Y integrase; assay: as above; details: Human immunodeficiency virus 1, read-out: Activity, Phenosense assay, T125K F121Y
From the text: as §1, §2

[4] = system: HIV variant T661/S153Y integrase; assay: as above; details: Human immunodeficiency virus 1, read-out: Activity, Phenosense assay, T661 S153Y
From the text: as §1, §2

[5] = system: HIV variant Y143R integrase; assay: as above; details: Human immunodeficiency virus 1, read-out: Activity, Phenosense assay, Y143R
From the text: as §1, §2

[6] = system: HIV-1 reporter virus, Q148H/G140S (QHGS) integrase; assay: Luciferase reporter virus infectivity assay in 293T cells; details: Human immunodeficiency virus 1, HEK-293T, 48 h, read-out: Luciferase assay EC50, QHGS
From the text: (§3) Infectivity assays using reporter viruses derived from lentiviral vectors capable of a single round of infection were used to determine the activity (EC50) of compounds. The DNA used to generate viruses for infection was the full-length HIV-1 genome which had been envelope-deleted. In addition, a reporter gene (the firefly luciferase gene from Photinus pyralis) was cloned into the nef region of the HIV backbone for ease of assay readout. […]. Culture supernatants containing VSV-G pseudotyped virions were harvested 64 h post transfection, clarified by centrifugation to remove cell debris, and frozen at −70° C. until use.
(§4) HIV integrase was mutated within a shuttle vector (pGEM) containing the majority of the HIV-1 gag and pol sequence using site-directed mutagenesis to generate sequences that are known to confer resistance to published integrase inhibitors. These include but are not limited to mutations such as Q148H/G140S (in table #QHGS), N155H/E92Q (in table #NHEQ), F121Y/T124K (in table FYTK), Y143R (in table #Y143R) and the triple mutant Q148K/G140A/E138A. (in table#QKGAEA). The mutated integrase coding region within the shuttle vector was sequence verified, and then exchanged for the wild-type (WT) coding sequence in the reporter virus DNA backbone.
(§5) 293T cells were plated out at 12000 cells per well in CellView 96-well cell culture plates (Invitrogen) 16 h prior to compound addition. Compounds were preincubated with cells for 4 h at 37° C. prior to the addition of virus sufficient to generate approximately 10000 Luciferase light units (as measured by the Victor Wallace luminometer) upon assaying using the Bright-Glo™ reagent (Promega) according to the manufacturer's instructions at 48 h post infection.

[7] = system: HIV-1 reporter virus, N155H/E92Q (NHEQ) integrase; assay: as above; details: Human immunodeficiency virus 1, HEK-293T, 48 h, read-out: Luciferase assay EC50, NHEQ
From the text: as §3, §4, §5

[8] = system: HIV-1 reporter virus, Q148K/G140A/E138A (QKGAEA) integrase; assay: as above; details: Human immunodeficiency virus 1, HEK-293T, 48 h, read-out: Luciferase assay EC50, QKGAEA
From the text: as §3, §4, §5

[9] = system: HIV-1 reporter virus, Y143R integrase; assay: as above; details: Human immunodeficiency virus 1, HEK-293T, 48 h, read-out: Luciferase assay EC50, Y143R
From the text: as §3, §4, §5

[10] = system: HIV-1 reporter virus, wild-type (WT) integrase; assay: as above; details: Human immunodeficiency virus 1, HEK-293T, 48 h, read-out: Luciferase assay EC50, WT
From the text: as §3, §4, §5

SMILES: O=C(NCc1ccc(Cl)c(Cl)c1)c1nc2ccc(N3CCOCC3)cn2c(=O)c1O [Comparative example 1, reference compound]
- EC50 (HIV WT integrase): 1 to 100 nM
- EC50 [1]: > 10000 nM
- EC50 [2]: > 10000 nM

SMILES: Cc1ccc2nc(-c3ncc(Cc4ccc(F)cc4)s3)c(O)c(=O)n2c1 [Comparative example 2, reference compound]
- EC50 (HIV WT integrase): 100 to 1000 nM
- EC50 [1]: 1000 to 10000 nM
- EC50 [2]: 1000 to 10000 nM
- EC50 [3]: 100 to 1000 nM
- EC50 [4]: 100 to 1000 nM
- EC50 [5]: 100 to 1000 nM

SMILES: O=C(NCc1ccc(F)cc1)c1nc2c(I)cc(N3CCOCC3)cn2c(=O)c1O [Comparative example 3, reference compound]
- EC50 (HIV WT integrase): 1 to 100 nM
- EC50 [1]: 1 to 100 nM
- EC50 [2]: > 10000 nM
- EC50 [3]: 1 to 100 nM
- EC50 [4]: 1 to 100 nM
- EC50 [5]: 1 to 100 nM

SMILES: O=c1c(O)c(-c2ncc(Cc3ccc(F)cc3)[nH]2)nc2c(Br)cc(N3CCOCC3)cn12 [Example 47, 2-(9-Bromo-3-hydroxy-7-morpholin-4-yl-4-oxo-4H-pyrido[1,2-a]pyrimidin-2-yl)-5-(4-fluoro-benzyl)-1H-imidazol-1-ium chloride]
- EC50 [6]: 100 to 1000 nM

SMILES: CC(=O)c1cc(N2CCOCC2)cn2c(=O)c(O)c(-c3ncc(Cc4ccc(F)cc4)s3)nc12 [Example 53, 9-Acetyl-2-[5-(4-fluoro-benzyl)-thiazol-2-yl]-3-hydroxy-7-morpholin-4-yl-pyrido[1,2-a]pyrimidin-4-one]
- EC50 [6]: 100 to 1000 nM

SMILES: CC(C)N1CCN(c2cc(N3CCOCC3)cn3c(=O)c(O)c(-c4ncc(Cc5ccc(F)cc5)s4)nc23)C1=O [Example 56, 2-[5-(4-Fluoro-benzyl)-thiazol-2-yl]-3-hydroxy-9-(3-isopropyl-2-oxo-imidazolidin-1-yl)-7-morpholin-4-yl-pyrido[1,2-a]pyrimidin-4-one]
- EC50 [7]: 1 to 100 nM
- EC50 [6]: 1 to 100 nM
- EC50 [8]: 1 to 100 nM
- EC50 [9]: 1 to 100 nM
- EC50 [10]: 1 to 100 nM

SMILES: CN1CCN(c2cc(N3CCOCC3)cn3c(=O)c(O)c(-c4ncc(Cc5ccc(F)c(Cl)c5)s4)nc23)C1=O [Example 60, 2-[5-(3-Chloro-4-fluoro-benzyl)-thiazol-2-yl]-3-hydroxy-9-(3-methyl-2-oxo-imidazolidin-1-yl)-7-morpholin-4-yl-pyrido[1,2-a]pyrimidin-4-one]
- EC50 [7]: 1 to 100 nM
- EC50 [6]: 1 to 100 nM
- EC50 [8]: 1 to 100 nM
- EC50 [9]: 1 to 100 nM
- EC50 [10]: 1 to 100 nM

SMILES: CN1CCN(c2cc(N(C)C)cn3c(=O)c(O)c(-c4ncc(Cc5ccc(F)cc5)s4)nc23)C1=O [Example 70, 7-Dimethylamino-2-[5-(4-fluoro-benzyl)-thiazol-2-yl]-3-hydroxy-9-(3-methyl-2-oxo-imidazolidin-1-yl)-pyrido[1,2-a]pyrimidin-4-one]
- EC50 [7]: 1 to 100 nM
- EC50 [6]: 1 to 100 nM
- EC50 [10]: 1 to 100 nM

SMILES: CN1CCN(c2cc(N(C)C)cn3c(=O)c(O)c(-c4ncc(Cc5ccc(F)cc5)[nH]4)nc23)C1=O [Example 72, 2-(7-(dimethylamino)-3-hydroxy-9-(3-methyl-2-oxoimidazolidin-1-yl)-4-oxo-4H-pyrido[1,2-a]pyrimidin-2-yl)-5-(4-fluorobenzyl)-1H-imidazol-3-ium chloride]
- EC50 [6]: 100 to 1000 nM

SMILES: CN1CCN(c2cc(N3CCOCC3)cn3c(=O)c(O)c(-c4ncc(Cc5ccc(F)c(Cl)c5)[nH]4)nc23)C1=O [Example 77, 5-(3-chloro-4-fluorobenzyl)-2-(3-hydroxy-9-(3-methyl-2-oxoimidazolidin-1-yl)-7-morpholino-4-oxo-4H-pyrido[1,2-a]pyrimidin-2-yl)-1H-imidazol-3-ium chloride]
- EC50 [7]: 1 to 100 nM
- EC50 [6]: 100 to 1000 nM
- EC50 [10]: 1 to 100 nM

SMILES: CN1CCN(c2cc(N3CCOCC3)cn3c(=O)c(O)c(-c4ncc(Cc5ccc(F)c(F)c5)[nH]4)nc23)C1=O [Example 79, 5-(3,4-difluorobenzyl)-2-(3-hydroxy-9-(3-methyl-2-oxoimidazolidin-1-yl)-7-morpholino-4-oxo-4H-pyrido[1,2-a]pyrimidin-2-yl)-1H-imidazol-3-ium chloride]
- EC50 [7]: 1 to 100 nM
- EC50 [6]: 100 to 1000 nM
- EC50 [10]: 1 to 100 nM

SMILES: O=C1CCCN1c1cc(N2CCOCC2)cn2c(=O)c(O)c(-c3ncc(Cc4ccc(F)cc4)[nH]3)nc12 [Example 83, 5-(4-fluorobenzyl)-2-(3-hydroxy-7-morpholino-4-oxo-9-(2-oxopyrrolidin-1-yl)-4H-pyrido[1,2-a]pyrimidin-2-yl)-1H-imidazol-3-ium chloride]
- EC50 [6]: 100 to 1000 nM

SMILES: O=C1OCCN1c1cc(N2CCOCC2)cn2c(=O)c(O)c(-c3ncc(Cc4ccc(F)cc4)[nH]3)nc12 [Example 87, 5-(4-fluorobenzyl)-2-(3-hydroxy-7-morpholino-4-oxo-9-(2-oxooxazolidin-3-yl)-4H-pyrido[1,2-a]pyrimidin-2-yl)-1H-imidazol-3-ium chloride]
- EC50 [6]: 100 to 1000 nM

SMILES: CN1CCN(c2cc(N3CCOCC3)cn3c(=O)c(O)c(-c4ncc(Cc5ccc(F)cc5)[nH]4)nc23)S1(=O)=O [Example 91, 4-(4-Fluoro-benzyl)-2-[3-hydroxy-9-(5-methyl-1,1-dioxo-116-[1,2,5]thiadiazolidin-2-yl)-7-morpholin-4-yl-4-oxo-4H-pyrido[1,2-a]pyrimidin-2-yl]-3H-imidazol-1-ium; chloride]
- EC50 [7]: 1 to 100 nM
- EC50 [6]: 1 to 100 nM
- EC50 [10]: 1 to 100 nM

SMILES: CN(c1cc(N2CCOCC2)cn2c(=O)c(O)c(-c3ncc(Cc4ccc(F)cc4)[nH]3)nc12)S(C)(=O)=O [Example 95, 5-(4-fluorobenzyl)-2-(3-hydroxy-9-(N-methylmethylsulfonamido)-7-morpholino-4-oxo-4H-pyrido[1,2-a]pyrimidin-2-yl)-1H-imidazol-3-ium chloride]
- EC50 [7]: 1 to 100 nM
- EC50 [6]: 100 to 1000 nM
- EC50 [10]: 1 to 100 nM

SMILES: O=C1CCCN1c1cc(N2CCOCC2)cn2c(=O)c(O)c(-c3ncc(Cc4ccc(F)cc4)s3)nc12 [Example 97, 2-[5-(4-Fluoro-benzyl)-thiazol-2-yl]-3-hydroxy-7-morpholin-4-yl-9-(2-oxo-pyrrolidin-1-yl)-pyrido[1,2-a]pyrimidin-4-one]
- EC50 [6]: 100 to 1000 nM

SMILES: O=c1c(O)c(-c2ncc(Cc3ccc(Cl)c(Cl)c3)s2)nc2c(N3CCCS3(=O)=O)cc(N3CCOCC3)cn12 [Example 108, 2-[5-(3,4-Dichloro-benzyl)-thiazol-2-yl]-9-(1,1-dioxo-116-isothiazolidin-2-yl)-3-hydroxy-7-morpholin-4-yl-pyrido[1,2-a]pyrimidin-4-one]
- EC50 [6]: 100 to 1000 nM
- EC50 [10]: 1 to 100 nM

SMILES: CN1CCN(c2cc(N3CCOCC3)cn3c(=O)c(O)c(-c4ncc(Cc5ccc(F)cc5)[nH]4)nc23)C1=O [Example 109, 5-(4-Fluoro-benzyl)-2-[3-hydroxy-9-(3-methyl-2-oxo-imidazolidin-1-yl)-7-morpholin-4-yl-4-oxo-4H-pyrido[1,2-a]pyrimidin-2-yl]-1H-imidazol-1-ium; chloride]
- EC50 [7]: 100 to 1000 nM
- EC50 [6]: 100 to 1000 nM
- EC50 [10]: 1 to 100 nM

Source: patent US8563562B2, “Compounds having antiviral properties” (priority 2008, dated 2013)
